Here are results for 14 compounds from patent publication US20240409585A1, “MACROCYCLIC IMMUNOMODULATORS” (priority 2021, published 2024).

Bridge positions count the residues as written; N and C are the ends. Square brackets hold non-standard residues; d marks the D form. Peptide text beside a SMILES is read from it. * marks the point of attachment. ξ: configuration not given here. Phe(4-COOH) = N[C@@H](Cc1ccc(C(=O)O)cc1)C(=O)O; Bip = N[C@@H](Cc1ccc(-c2ccccc2)cc1)C(=O)O; Phe(3-CN) = N#Cc1cccc(C[C@H](N)C(=O)O)c1; Phe(4-CN) = N#Cc1ccc(C[C@H](N)C(=O)O)cc1; Phe(3-Me) = Cc1cccc(C[C@H](N)C(=O)O)c1; Val(3-OH) = CC(C)(O)[C@H](N)C(=O)O; 4Pal = N[C@@H](Cc1ccncc1)C(=O)O; 3Thi = N[C@@H](Cc1ccsc1)C(=O)O; Cha = N[C@@H](CC1CCCCC1)C(=O)O; Cit = NC(=O)NCCC[C@H](N)C(=O)O; Ile(3ξ) = CCC(C)[C@H](N)C(=O)O; Carboxymethyl = O=C(O)C*; NMeA = CN[C@@H](C)C(=O)O; Dab = NCC[C@H](N)C(=O)O; Dap = NC[C@H](N)C(=O)O; ξN = NC(=O)CC(N)C(=O)O

For this assay, the target named is T1, PE-labeled human PD-L1-Ig binding to Jurkat cell line over-expressing human PD-1 (Jurkat-PD-1) (Homo sapiens, UniProt Q15116).
T1 construct: expressed in transfected cells; host or cells: Jurkat
T1 sequence (Q15116 25-288): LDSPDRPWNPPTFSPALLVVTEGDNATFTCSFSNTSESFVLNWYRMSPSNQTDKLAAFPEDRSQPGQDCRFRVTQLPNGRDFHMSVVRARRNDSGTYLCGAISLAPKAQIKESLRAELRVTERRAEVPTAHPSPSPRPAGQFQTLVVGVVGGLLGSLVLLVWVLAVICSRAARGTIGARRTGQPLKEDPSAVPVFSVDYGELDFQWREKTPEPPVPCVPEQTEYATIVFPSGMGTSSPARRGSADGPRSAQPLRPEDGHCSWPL
The experiment in a line: Jurkat-PD-1 Cell Binding High-Content Screening Assay (CBA): Method 1. The note with it: Jurkat-hPD-1 cells, PE-labeled PD-L1-Ig 20 nM final; read-out: Jurkat HPDL1 PD1 IC50 (uM) (Method 1).
The IC50 is the concentration needed to halve the response being measured. `CC(C)C[C@@H]1NC(=O)[C@H](CCN)NC(=O)[C@@H](CC(C)C)NC(=O)[C@H](C)N(C)C(=O)[C@H](CCC(=O)O)NC(=O)[C@H](Cc2ccc(-c3ccccc3)cc2)NC(=O)[C@H](C(C)C)NC(=O)[C@H](Cc2c[nH]c3ccccc23)NC(=O)[C@H](CC(=O)O)NC(=O)[C@H](Cc2ccc(OCC(=O)O)cc2)NC(=O)[C@H](Cc2ccncc2)NC(=O)CSC[C@@H](C(=O)N[C@@H](C)C(N)=O)NC(=O)[C@H](CO)NC(=O)[C@H](C(C)C)NC1=O` [Compound 1575] ({CH2CO}-[4Pal]Y(Carboxymethyl)DWV[Bip]E[NMeA][dL][Dab]LVSCA-NH2; thioether N-14): the IC50 was 0.05 µM. The result for `CC(C)C[C@@H]1NC(=O)[C@H](Cc2c[nH]c3ccccc23)NC(=O)[C@H](CC(=O)O)NC(=O)[C@H](Cc2ccc(O)cc2)NC(=O)[C@H](Cc2ccccc2)NC(=O)CSC[C@@H](C(=O)N[C@@H](C)C(N)=O)NC(=O)[C@H]([C@@H](C)O)NC(=O)[C@H](CN)NC(=O)[C@H](CC(C)C)NC(=O)[C@H](CC(N)=O)NC(=O)[C@@H](C)NC(=O)[C@H](C)N(C)C(=O)[C@H](C(C)C)NC(=O)[C@H](Cc2ccc(-c3ccccc3)cc2)NC1=O` [Compound 1535] ({CH2CO}-FYDWL[Bip]V[NMeA][dA]NL[Dap]TCA-NH2; thioether N-14) reads 0.36 µM; that for `CC[C@H](C)[C@@H]1NC(=O)[C@H](Cc2ccc(-c3ccccc3)cc2)NC(=O)[C@H](C(C)C)NC(=O)[C@H](Cc2c[nH]c3ccccc23)NC(=O)[C@H](CC(=O)O)NC(=O)[C@H](Cc2cccc(C#N)c2)NC(=O)[C@H](CC(N)=O)NC(=O)CSC[C@@H](C(=O)N[C@@H](C)C(N)=O)NC(=O)[C@H]([C@@H](C)O)NC(=O)[C@H](C(C)C)NC(=O)[C@H](CC(C)C)NC(=O)[C@H](CCN)NC(=O)[C@@H](CC(C)C)NC(=O)[C@H](C)N(C)C1=O` [Compound 1397] ({CH2CO}-N[Phe(3-CN)]DWV[Bip]I[NMeA][dL][Dab]LVTCA-NH2; thioether N-14), 0.02 µM. With `CC(C)C[C@@H]1NC(=O)[C@H](CCN)NC(=O)[C@@H](CC(C)C)NC(=O)[C@H](C)N(C)C(=O)[C@H](CCCNC(N)=O)NC(=O)[C@H](Cc2ccc(-c3ccccc3)cc2)NC(=O)[C@H](C(C)C)NC(=O)[C@H](Cc2c[nH]c3ccccc23)NC(=O)[C@H](CC(=O)O)NC(=O)[C@H](Cc2ccc(O)cc2)NC(=O)[C@H](CCC(N)=O)NC(=O)CSC[C@@H](C(=O)N[C@@H](C)C(N)=O)NC(=O)[C@H]([C@@H](C)O)NC(=O)[C@H](C(C)C)NC1=O` [Compound 1357] ({CH2CO}-QYDWV[Bip][Cit][NMeA][dL][Dab]LVTCA-NH2; thioether N-14), the IC50 came to 0.06 µM.

For `CC(C)C[C@@H]1NC(=O)[C@H](Cc2c[nH]c3ccccc23)NC(=O)[C@H](CC(=O)O)NC(=O)[C@H](Cc2ccc(C(=O)O)cc2)NC(=O)[C@H](Cc2ccc(OCC(=O)O)cc2)NC(=O)CSC[C@@H](C(=O)NC(CC(N)=O)C(N)=O)NC(=O)[C@H](CO)NC(=O)[C@H](C(C)C)NC(=O)[C@H](CC2CCCCC2)NC(=O)[C@H](CCN)NC(=O)[C@@H](CC(C)C)NC(=O)[C@H](C)N(C)C(=O)[C@H](C(C)C)NC(=O)[C@H](Cc2ccc(-c3ccccc3)cc2)NC1=O` (stereo partly drawn) [Compound 1912] ({CH2CO}-Y(Carboxymethyl)[Phe(4-COOH)]DWL[Bip]V[NMeA][dL][Dab][Cha]VSC[ξN]-NH2; thioether N-14), the IC50 was 0.02 µM. With `CC(C)C[C@@H]1NC(=O)[C@H](Cc2c[nH]c3ccccc23)NC(=O)[C@H](CC(=O)O)NC(=O)[C@H](Cc2ccc(O)cc2)NC(=O)[C@H](CC(N)=O)NC(=O)CSC[C@@H](C(=O)N[C@@H](C)C(N)=O)NC(=O)[C@H](CO)NC(=O)[C@H](C(C)C)NC(=O)[C@H](CC(C)C)NC(=O)[C@H](CC(N)=O)NC(=O)[C@@H](C)NC(=O)[C@H](C)N(C)C(=O)[C@H](C(C)C)NC(=O)[C@H](Cc2ccc(-c3ccccc3)cc2)NC1=O` [Compound 1762] ({CH2CO}-NYDWL[Bip]V[NMeA][dA]NLVSCA-NH2; thioether N-14), the IC50 turned out to be 0.04 µM. Consider `Cc1cccc(C[C@@H]2NC(=O)[C@H](CC(=O)O)NC(=O)[C@H](Cc3ccc(C(=O)O)cc3)NC(=O)[C@H](Cc3ccc(OCC(=O)O)cc3)NC(=O)CSC[C@@H](C(N)=O)NC(=O)[C@H](CCCCN)NC(=O)[C@H](C(C)C)NC(=O)[C@H](CC(C)C)NC(=O)[C@H](CC(N)=O)NC(=O)[C@@H](CC(C)C)NC(=O)[C@H](C)N(C)C(=O)[C@H](C(C)C)NC(=O)[C@H](Cc3ccc(-c4ccccc4)cc3)NC(=O)[C@H](CC(C)C)NC2=O)c1` [Compound 2257] ({CH2CO}-Y(Carboxymethyl)[Phe(4-COOH)]D[Phe(3-Me)]L[Bip]V[NMeA][dL]NLVKC-NH2; thioether N-14), for which the IC50 turned out to be 0.06 µM. The result for `CCC(C)[C@@H]1NC(=O)[C@H](Cc2ccc(-c3ccccc3)cc2)NC(=O)[C@H](CC(C)C)NC(=O)[C@H](Cc2c[nH]c3ccccc23)NC(=O)[C@H](CC(=O)O)NC(=O)[C@H](Cc2ccc(C(=O)O)cc2)NC(=O)[C@H](Cc2ccc(OCC(=O)O)cc2)NC(=O)CSC[C@@H](C(=O)N[C@@H](CC(N)=O)C(N)=O)NC(=O)[C@H](CO)NC(=O)[C@H](C(C)C)NC(=O)[C@H](CC2CCCCC2)NC(=O)[C@H](CCN)NC(=O)[C@@H](CC(C)C)NC(=O)[C@H](C)N(C)C1=O` (stereo partly drawn) [Compound 1917] ({CH2CO}-Y(Carboxymethyl)[Phe(4-COOH)]DWL[Bip][Ile(3ξ)][NMeA][dL][Dab][Cha]VSCN-NH2; thioether N-14) reads 0.04 µM. The result for `CC(C)C[C@@H]1NC(=O)[C@H](CCN)NC(=O)[C@@H](CC(C)C)NC(=O)[C@H](C)N(C)C(=O)[C@H](CCC(=O)O)NC(=O)[C@H](Cc2ccc(-c3ccccc3)cc2)NC(=O)[C@H](C(C)C)NC(=O)[C@H](Cc2c[nH]c3ccccc23)NC(=O)[C@H](CC(=O)O)NC(=O)[C@H](Cc2ccc(O)cc2)NC(=O)[C@H](Cc2ccccc2)NC(=O)CSC[C@@H](C(=O)N[C@@H](C)C(N)=O)NC(=O)[C@H]([C@@H](C)O)NC(=O)[C@H](C(C)C)NC1=O` [Compound 1134] ({CH2CO}-FYDWV[Bip]E[NMeA][dL][Dab]LVTCA-NH2; thioether N-14) reads 0.11 µM; that for `CC(C)C[C@@H]1NC(=O)[C@H](CCN)NC(=O)[C@@H](CC(C)C)NC(=O)[C@H](C)N(C)C(=O)[C@H](CCCNC(=N)N)NC(=O)[C@H](Cc2ccc(-c3ccccc3)cc2)NC(=O)[C@H](C(C)C)NC(=O)[C@H](Cc2c[nH]c3ccccc23)NC(=O)[C@H](CC(=O)O)NC(=O)[C@H](Cc2ccc(OCC(=O)O)cc2)NC(=O)[C@H](Cc2ccncc2)NC(=O)CSC[C@@H](C(=O)N[C@@H](C)C(N)=O)NC(=O)[C@H]([C@@H](C)O)NC(=O)[C@H](C(C)C)NC1=O` [Compound 1443] ({CH2CO}-[4Pal]Y(Carboxymethyl)DWV[Bip]R[NMeA][dL][Dab]LVTCA-NH2; thioether N-14), 0.01 µM; that for `CC(C)C[C@@H]1NC(=O)[C@H](CCN)NC(=O)[C@@H](CC(C)C)NC(=O)[C@H](C)N(C)C(=O)[C@H](Cc2cnc[nH]2)NC(=O)[C@H](Cc2ccc(-c3ccccc3)cc2)NC(=O)[C@H](C(C)C)NC(=O)[C@H](Cc2c[nH]c3ccccc23)NC(=O)[C@H](CC(=O)O)NC(=O)[C@H](Cc2ccc(C#N)cc2)NC(=O)[C@H](CN)NC(=O)CSC[C@@H](C(=O)N[C@@H](C)C(N)=O)NC(=O)[C@H]([C@@H](C)O)NC(=O)[C@H](C(C)C)NC1=O` [Compound 1433] ({CH2CO}-[Dap][Phe(4-CN)]DWV[Bip]H[NMeA][dL][Dab]LVTCA-NH2; thioether N-14), 0.16 µM. In the case of `Cc1cccc(C[C@@H]2NC(=O)[C@H](CC(=O)O)NC(=O)[C@H](Cc3ccc(C(=O)O)cc3)NC(=O)[C@H](Cc3ccsc3)NC(=O)CSC[C@@H](C(=O)N[C@@H](CCN)C(N)=O)NC(=O)[C@H](CO)NC(=O)[C@H](C(C)(C)O)NC(=O)[C@H](CC3CCCCC3)NC(=O)[C@H](CCN)NC(=O)[C@@H](CC(C)C)NC(=O)[C@H](C)N(C)C(=O)[C@H](Cc3ccc(OCC(=O)O)cc3)NC(=O)[C@H](Cc3ccc(-c4ccccc4)cc3)NC(=O)[C@H](Cc3ccc(OCC(=O)O)cc3)NC2=O)c1` [Compound 2133] ({CH2CO}-[3Thi][Phe(4-COOH)]D[Phe(3-Me)]Y(Carboxymethyl)[Bip]Y(Carboxymethyl)[NMeA][dL][Dab][Cha][Val(3-OH)]SC[Dab]-NH2; thioether N-14), the IC50 was determined as 0.01 µM.

`CC(C)C[C@@H]1NC(=O)[C@H](CCN)NC(=O)[C@@H](CC(C)C)NC(=O)[C@H](C)N(C)C(=O)[C@H](C(C)C)NC(=O)[C@H](Cc2ccc(-c3ccccc3)cc2)NC(=O)[C@H](C(C)C)NC(=O)[C@H](Cc2c[nH]c3ccccc23)NC(=O)[C@H](CC(=O)O)NC(=O)[C@H](Cc2ccc(C(=O)O)cc2)NC(=O)[C@H](CC(N)=O)NC(=O)CSC[C@@H](C(=O)N[C@@H](C)C(N)=O)NC(=O)[C@H]([C@@H](C)O)NC(=O)[C@H](C(C)C)NC1=O` [Compound 1378] ({CH2CO}-N[Phe(4-COOH)]DWV[Bip]V[NMeA][dL][Dab]LVTCA-NH2; thioether N-14): the IC50 was found to be 0.01 µM.

Take `Cc1cccc(C[C@@H]2NC(=O)[C@H](CC(=O)O)NC(=O)[C@H](Cc3ccc(OCC(=O)O)cc3)NC(=O)[C@H](Cc3ccncc3)NC(=O)CSC[C@@H](C(=O)N[C@@H](CCN)C(N)=O)NC(=O)[C@H](CCC(N)=O)NC(=O)[C@H](C(C)(C)O)NC(=O)[C@H](CC3CCCCC3)NC(=O)[C@H](CCN)NC(=O)[C@@H](CC(C)C)NC(=O)[C@H](C)N(C)C(=O)[C@H](Cc3ccc(OCC(=O)O)cc3)NC(=O)[C@H](Cc3ccc(-c4ccccc4)cc3)NC(=O)[C@H](Cc3ccc(OCC(=O)O)cc3)NC2=O)c1` [Compound 2192] ({CH2CO}-[4Pal]Y(Carboxymethyl)D[Phe(3-Me)]Y(Carboxymethyl)[Bip]Y(Carboxymethyl)[NMeA][dL][Dab][Cha][Val(3-OH)]QC[Dab]-NH2; thioether N-14): the IC50 was 0.02 µM.
